Reference: doi:10.1101/2025.04.25.650653, “Hierarchical small molecule inhibition of MYST acetyltransferases” (bioRxiv, 2025)

Experiments:
[1] = tested on: H4K16Ac (KAT8); assay: Histone acetylation biomarker western blot, MCF-7; type: cell-based; conditions: MCF-7 cells, 24 h, up to 30 μM
Experimental: Target engagement was assessed using the panel of MYST-dependent histone acetylation biomarkers defined above. […] While WM-3835 has been applied to study KAT7, its initial publication alludes to its ability to inhibit both KAT6A/B and KAT7.[14], [43] […] All commercial vendors currently market WM-3835 as a KAT7 inhibitor.
General materials and methods
Total protein on western blots was […]
manufacturer's protocols.
KAT capture and competitive chemoproteomic profiling […]
for 2 hours, then lyophilized.
12 μL triethylamine. […] The beads were then magnetically separated […]
distinguish between tightly grouped and diffuse clusters, compactness was quantified by calculating the average pairwise Euclidean distance between all points within each cluster. Clusters with lower average

[2] = tested on: MYST KAT complexes (KAT7, KAT8, KAT5) in HeLa nuclear extracts; assay: Competitive chemoproteomic profiling (H3K14-CoA affinity capture) of native MYST complexes; type: binding
Experimental: Proteins belonging to multiple KAT complexes are characterized by distinct competition profiles.
The beads were washed three times
during the bead coating step.
hours with end-over-end mixing.
After magnetic separation for 3 minutes,
conditions, and both eluates were combined.
Membranes were probed with antibodies

[3] = tested on: BT-549 cells; assay: ATP-based viability assay (CellTiter-Glo); type: cell-based; conditions: Homo sapiens; BT-549, ATP-Glo assay, 72 h, n=4
Description: Figure 6. […] (C) Dependence of breast cancer cell lines on non-MYST KATs (EP300, CREBBP), MYST KATs (KAT6A, KAT6B, KAT7, KAT8, KAT5), and a MYST KAT complex member (BRPF1) derived from on DepMap CRISPR screening data. BT-549 is highlighted in orange. Lower CERES score indicates a greater dependence of the cell line on the specified gene. […] Data is representiative of n=2 biological replicates.
Analysis of DepMap-derived CRISPR screening data supports the notion that while breast cancer models vary widely in their requirement for EP300 and CREBBP, BT-549 appears to a fairly independent line. […]
(0.01, 0.1, 1, 10, 100 μM) for 48 hours and analyzed by sulforhodamine B assay for growth inhibition as previously described.12-14 o validate the NCI-60 relative activity trends using an orthogonal method, we […]
0.94, 0.47, 0.23, 0 μM) for 96 hours. Experiments were performed in quadruplicate, and cell viability was measured using CellTiter-Glo® Luminescent Cell Viability Assay (Promega, G7572) according to the manufacturer's instructions. Luminescence signals were recorded on a BioTek Synergy 2 plate reader, and results were normalized to vehicle-treated controls (set to 100%). Half-maximal inhibition values (IC₅₀) were determined from nonlinear regression analysis of dose-response curves using GraphPad Prism 9. […]

GI50 [3]: ~7 µM
SMILES: COc1cccc(OC)c1S(=O)(=O)Nc1noc2cc(Cn3cccn3)cc(OC)c12 [PF-9363]
inhibition of KAT8 (H4K16Ac) [1]: able to inhibit KAT8-catalyzed H4K16Ac
competition of capture of KAT8-containing MSL and NSL complexes and KAT5-containing NuA4 complex ([2]; 1 and 10 μM, HeLa nuclear extracts): competed capture of all CORUM-annotated members
sensitivity of KAT complexes, general order ([2]; HeLa nuclear extracts, chemoproteomic competition): KAT7 > KAT8 > KAT5
hierarchical inhibition order of native KAT complexes ([2]; chemoproteomic profiling and histone acetylation biomarkers): KAT6A/B > KAT7 >> KAT8 > KAT5
